Legend:
[1] = tested on: A549-ACE2 infected with SARS-CoV-2; experiment: SARS-CoV-2 infection rate relative to DMSO; higher = more infection; details: 24 h
[2] = tested on: A549-ACE2; experiment: phospholipidosis EC50; higher = less potent phospholipidosis inducer
[3] = tested on: A549-ACE2 infected with SARS-CoV-2; experiment: cell count relative to DMSO; higher = less toxic; details: 24 h
[4] = tested on: Caco-2; experiment: relative viability EC50 (midpoint between 100% and the lowest measured viability); higher = less toxic; details: 72 h
[5] = tested on: U2OS; experiment: as above; details: 72 h
[6] = tested on: A549-ACE2 infected with SARS-CoV-2; experiment: morphology score (similarity to uninfected cells); higher = more like uninfected cells; details: 24 h
[7] = tested on: Calu-3; experiment: cell viability relative to DMSO; higher = less toxic; details: 72 h
[8] = tested on: HepG2; experiment: as above; details: 72 h
[9] = tested on: Caco-2; experiment: as above; details: 72 h
[10] = tested on: Vero E6; experiment: as above; details: 72 h
[11] = tested on: U2OS; experiment: as above; details: 72 h
[12] = tested on: Calu-3; experiment: drug sensitivity score (DSS) for viability; higher = more toxic; extreme values may be limits of the assay; details: 72 h
[13] = tested on: HepG2; experiment: as above; details: 72 h
[14] = tested on: Caco-2; experiment: as above; details: 72 h
[15] = tested on: Vero E6; experiment: as above; details: 72 h
[16] = tested on: U2OS; experiment: as above; details: 72 h
[17] = tested on: A549-ACE2; experiment: drug-induced phospholipidosis relative to tamoxifen; higher = more phospholipidosis
[18] = tested on: Calu-3; experiment: relative viability EC50 (midpoint between 100% and the lowest measured viability); higher = less toxic; details: 72 h
[19] = tested on: HepG2; experiment: as above; details: 72 h
[20] = tested on: Vero E6; experiment: as above; details: 72 h

CSc1ccc2c(c1)[C@H](N1CCN(C)CC1)Cc1ccccc1S2 (racemic) [metitepine]
Details	SARS-CoV-2 infection rate [%]	cell count [%]	cell viability [%]	morphology score	phospholipidosis EC50 [µM]
[1], 0.1 µM	106	–	–	–	–
[1], 0.3 µM	90	–	–	–	–
[1], 1 µM	88	–	–	–	–
[1], 3 µM	47	–	–	–	–
[2], 24 h	–	–	–	–	3.04
[2], 48 h	–	–	–	–	5.86
[2], 72 h	–	–	–	–	9.23
[3], 0.1 µM	–	101	–	–	–
[3], 0.3 µM	–	104	–	–	–
[3], 1 µM	–	108	–	–	–
[3], 3 µM	–	94	–	–	–
[6], 0.1 µM	–	–	–	0.14	–
[6], 0.3 µM	–	–	–	0.39	–
[6], 1 µM	–	–	–	0.32	–
[6], 3 µM	–	–	–	0.72	–
[7], 1 nM	–	–	98.4	–	–
[7], 10 nM	–	–	101	–	–
[7], 100 nM	–	–	98.2	–	–
[7], 1000 nM	–	–	104	–	–
[7], 10000 nM	–	–	73.2	–	–
[8], 1 nM	–	–	101	–	–
[8], 10 nM	–	–	107	–	–
[8], 100 nM	–	–	103	–	–
[8], 1000 nM	–	–	99	–	–
[8], 10000 nM	–	–	64.3	–	–
[9], 1 nM	–	–	108	–	–
[9], 10 nM	–	–	92.9	–	–
[9], 100 nM	–	–	99.2	–	–
[9], 1000 nM	–	–	102	–	–
[9], 10000 nM	–	–	48.5	–	–
[10], 1 nM	–	–	106	–	–
[10], 10 nM	–	–	104	–	–
[10], 100 nM	–	–	102	–	–
[10], 1000 nM	–	–	101	–	–
[10], 10000 nM	–	–	71.6	–	–
[11], 1 nM	–	–	98.9	–	–
[11], 10 nM	–	–	97.6	–	–
[11], 100 nM	–	–	97.1	–	–
[11], 1000 nM	–	–	97.2	–	–
[11], 10000 nM	–	–	93.2	–	–

Details	drug sensitivity score	relative viability EC50 [µM]
[4]	–	3.35
[5]	–	> 10
[12]	0.8	–
[13]	1.8	–
[14]	2.6	–
[15]	1.1	–
[16]	0	–

drug-induced phospholipidosis [%], [17]
Details	0.3 µM	0.833333 µM	3.33333 µM	6.66667 µM	10 µM	30 µM
24 h	7.38	6.64	62.5	91.7	105	86.3
48 h	6.3	11.3	47.9	92.1	115	–
72 h	8.87	6.23	37.4	86.6	125	–

Cc1[nH]c(/C=C2\C(=O)Nc3ccc(F)cc32)c(C)c1C(=O)NCCN1CCCC1 [toceranib]
Details	SARS-CoV-2 infection rate [%]	cell count [%]	cell viability [%]	morphology score	phospholipidosis EC50 [µM]
[1], 0.1 µM	88	–	–	–	–
[1], 0.3 µM	107	–	–	–	–
[1], 1 µM	100	–	–	–	–
[1], 3 µM	80	–	–	–	–
[2], 24 h	–	–	–	–	16.5
[3], 0.1 µM	–	107	–	–	–
[3], 0.3 µM	–	103	–	–	–
[3], 1 µM	–	102	–	–	–
[3], 3 µM	–	111	–	–	–
[6], 0.1 µM	–	–	–	0.22	–
[6], 0.3 µM	–	–	–	-0.03	–
[6], 1 µM	–	–	–	0.33	–
[6], 3 µM	–	–	–	0.51	–
[8], 1 nM	–	–	99.4	–	–
[8], 10 nM	–	–	107	–	–
[8], 100 nM	–	–	97.3	–	–
[8], 1000 nM	–	–	106	–	–
[8], 10000 nM	–	–	53.9	–	–
[9], 1 nM	–	–	95.6	–	–
[9], 10 nM	–	–	94.8	–	–
[9], 100 nM	–	–	98.8	–	–
[9], 1000 nM	–	–	105	–	–
[9], 10000 nM	–	–	92.9	–	–
[10], 1 nM	–	–	89.9	–	–
[10], 10 nM	–	–	99.1	–	–
[10], 100 nM	–	–	101	–	–
[10], 1000 nM	–	–	106	–	–
[10], 10000 nM	–	–	73.2	–	–
[11], 1 nM	–	–	95.5	–	–
[11], 10 nM	–	–	97.9	–	–
[11], 100 nM	–	–	103	–	–
[11], 1000 nM	–	–	96.3	–	–
[11], 10000 nM	–	–	85.2	–	–

Details	drug sensitivity score	relative viability EC50 [µM]
[4]	–	> 10
[5]	–	> 10
[13]	2	–
[14]	0	–
[15]	0.8	–
[16]	0.5	–

drug-induced phospholipidosis [%], [17]
Details	0.3 µM	0.833333 µM	3.33333 µM	6.66667 µM	10 µM	30 µM
24 h	4.88	-0.73	12.9	38.6	54.2	119
48 h	5.94	-0.83	1.11	20.1	38.4	–
72 h	4.25	-2.8	-0.0471	16	34	–

Fc1ccc(-n2cc(CCCCN3CCC4(CC3)OCc3ccccc34)c3ccccc32)cc1 [siramesine]
Details	SARS-CoV-2 infection rate [%]	cell count [%]	cell viability [%]	morphology score	phospholipidosis EC50 [µM]
[1], 0.1 µM	93	–	–	–	–
[1], 0.3 µM	50	–	–	–	–
[1], 1 µM	60	–	–	–	–
[1], 3 µM	26	–	–	–	–
[2], 72 h	–	–	–	–	4.1
[3], 0.1 µM	–	111	–	–	–
[3], 0.3 µM	–	114	–	–	–
[3], 1 µM	–	117	–	–	–
[3], 3 µM	–	111	–	–	–
[6], 0.1 µM	–	–	–	0.38	–
[6], 0.3 µM	–	–	–	0.75	–
[6], 1 µM	–	–	–	0.69	–
[6], 3 µM	–	–	–	0.84	–
[7], 1 nM	–	–	88.8	–	–
[7], 10 nM	–	–	94.3	–	–
[7], 100 nM	–	–	88.2	–	–
[7], 1000 nM	–	–	104	–	–
[7], 10000 nM	–	–	17.8	–	–
[8], 1 nM	–	–	97.7	–	–
[8], 10 nM	–	–	100	–	–
[8], 100 nM	–	–	93.5	–	–
[8], 1000 nM	–	–	98.6	–	–
[8], 10000 nM	–	–	24	–	–
[9], 1 nM	–	–	97.3	–	–
[9], 10 nM	–	–	104	–	–
[9], 100 nM	–	–	85.1	–	–
[9], 1000 nM	–	–	101	–	–
[9], 10000 nM	–	–	37.5	–	–
[10], 1 nM	–	–	98.9	–	–
[10], 10 nM	–	–	93.5	–	–
[10], 100 nM	–	–	99.2	–	–
[10], 1000 nM	–	–	89	–	–
[10], 10000 nM	–	–	73.5	–	–
[11], 1 nM	–	–	100	–	–
[11], 10 nM	–	–	97.7	–	–
[11], 100 nM	–	–	95.6	–	–
[11], 1000 nM	–	–	103	–	–
[11], 10000 nM	–	–	53.2	–	–

Details	drug sensitivity score	relative viability EC50 [µM]
[4]	–	3.26
[12]	4.2	–
[13]	4.4	–
[14]	3.3	–
[15]	2.2	–
[16]	2.2	–
[18]	–	3.44
[19]	–	3.03

drug-induced phospholipidosis [%], [17]
Details	0.3 µM	0.833333 µM	3.33333 µM	6.66667 µM	10 µM
24 h	2.74	5.08	32.4	33.5	24.5
48 h	4.1	0.61	22.6	47.9	–
72 h	0.56	0.623	23.8	61.4	–

N#CC[C@@H](C1CCCC1)n1cc(-c2ncnc3[nH]ccc23)cn1 [ruxolitinib-(S)]
Details	SARS-CoV-2 infection rate, [1] [%]	cell count, [3] [%]	cell viability, [7] [%]	cell viability, [8] [%]	cell viability, [9] [%]	cell viability, [10] [%]	cell viability, [11] [%]	morphology score, [6]
1 nM	–	–	91.4	101	103	98.5	100	–
10 nM	–	–	97.1	96	99	101	99.1	–
100 nM	–	–	99	92.3	106	98.2	99.3	–
0.3 µM	109	88	–	–	–	–	–	0.15
1000 nM	–	–	102	103.3	93.6	96.5	97.5	–
3 µM	110	100	–	–	–	–	–	0.17
10 µM	112	91	–	–	–	–	–	-0.08
10000 nM	–	–	112	97.4	99.6	94.05	95.8	–
30 µM	119	36	–	–	–	–	–	-0.15

Details	drug sensitivity score	relative viability EC50 [µM]
[4]	–	> 10
[5]	–	> 10
[12]	0	–
[13]	0	–
[14]	0	–
[15]	0	–
[16]	0	–
[18]	–	> 10
[19]	–	> 10
[20]	–	> 10

drug-induced phospholipidosis [%], [17]
Details	0.3 µM	0.833333 µM	3.33333 µM	6.66667 µM	10 µM	30 µM
24 h	-0.6	-1.86	-0.62	3.24	4.69	32.2
48 h	-3.03	-3.25	-1.5	0.99	1.91	–
72 h	-3.98	-4.86	-3.52	-0.549	1.82	–

From the supplement of paper PMC13380429
